Here are results for 1 molecule from PMC9959265, “Permethrin as a Potential Furin Inhibitor through a Novel Non-Competitive Allosteric Inhibition” (Molecules, 2023).

Data set [1] relates to HeLa cells. The experiment in a line: Cellular cytotoxicity (CCK8), HeLa. The data set is classed as cell-based. Particulars: HeLa (high furin expression), 24 or 48 h. On the procedure:
(§1) Furin is highly expressed in liver cancer cells and has specific effects on hepatocellular carcinoma. Therefore, human hepatocellular carcinoma cells Hep-G2 were selected as experimental cells, cervical carcinoma cells HeLa with similar furin expression in Hep-G2 were selected as control, and human permanent hepatocytes L-02 were selected as negative control. DMEM was used for HeLa, and 1640 medium was used for Hep-G2 and L-02. After incubation for 24 h with 100 μL complete medium in 96-well plates with 8000 cells per well, the medium was aspirated, 100 μL serum-free medium containing a concentration gradient of the compound was added and the samples were incubated. After 24 or 48 h the drug-containing medium was aspirated and 100 μL medium solution containing 10% CCK8 was added, subsequently, the absorbance was measured at 450 nm using a microplate reader after 1 h of incubation.

Data set [2] has as its target T1, furin (Homo sapiens, UniProt P09958).
Protocol: For the measurement of enzymatic kinetics and inhibition kinetics, the substrate concentration gradients were set to 0 μM, 2 μM, 5 μM, 10 μM, 20 μM, 40 μM, 60 μM, 80 μM, 100 μM, 120 μM, and the compound concentration gradients to 0 μM, 25 μM, 50 μM, 100 μM. Furin was added to 100 mM HEPES assay system buffer (pH 6.0, containing 0.5% Triton X-100 and 5 mM CaCl2), followed by different concentrations of the compounds to be tested, preincubated at 37 °C for 5 min. Different concentrations of the substrate were added; the sample was incubated at 37 °C for 35 min, and quenched with 1% formic acid. The initial rate of the enzymatic reaction of furin was tested and the curve was plotted.
Data set [3] relates to trypsin. The data set can be described thus: Inhibition effect on trypsin (control protease). The data set is classed as biochemical. Particulars: Figure S1E.
Data set [4] relates to L-02 cells. The data set can be described thus: Cellular cytotoxicity (CCK8), L-02. The data set is classed as cell-based, human. Particulars: L-02 normal liver cells (low furin expression), 24 or 48 h. On the procedure:
as §1

In data set [5] the target is T1, furin. The data set can be described thus: Furin activity / inhibitor screening assay with Boc-R-V-R-R-AMC substrate. The arrangement: His tag; host or cells: E. coli BL21 (DE3). The data set is classed as biochemical. The procedure:
Boc-Arg-Val-Arg-Arg-AMC (Boc-R-V-R-R-AMC) was used as a substrate for the detection of furin. It carries an AMC ([…]) moiety that fluoresces at an excitation wavelength of 370 nm and an emission wavelength of 460 nm.
The reaction was then incubated for 90 min at 37 °C, supplemented with 40 μM substrate, quenched using 1% formic acid and the enzyme activity was monitored using a Thermo Scientific Varioskan Flash Multi-Mode Microplate Reader.

For data set [6], the system named is Hep-G2 cells. The experiment in a line: Cellular cytotoxicity (CCK8), Hep-G2. The data set is classed as cell-based, human. The settings on record: Hep-G2 (high furin expression), 24 or 48 h. On the procedure:
as §1

T1 sequence (P09958 108-574 limits assumed): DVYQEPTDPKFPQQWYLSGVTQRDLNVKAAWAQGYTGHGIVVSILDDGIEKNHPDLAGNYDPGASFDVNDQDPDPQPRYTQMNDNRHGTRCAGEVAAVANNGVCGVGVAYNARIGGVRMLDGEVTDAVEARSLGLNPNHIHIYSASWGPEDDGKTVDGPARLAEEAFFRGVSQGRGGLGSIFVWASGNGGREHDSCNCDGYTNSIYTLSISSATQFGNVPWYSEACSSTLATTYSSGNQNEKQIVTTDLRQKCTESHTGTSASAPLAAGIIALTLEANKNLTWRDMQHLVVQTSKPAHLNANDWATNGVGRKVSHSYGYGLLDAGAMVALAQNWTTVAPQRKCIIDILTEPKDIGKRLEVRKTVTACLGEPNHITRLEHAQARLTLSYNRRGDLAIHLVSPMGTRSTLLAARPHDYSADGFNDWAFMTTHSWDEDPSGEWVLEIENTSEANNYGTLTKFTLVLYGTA

Consider `CC1(C)C(C=C(Cl)Cl)C1C(=O)OCc1cccc(Oc2ccccc2)c1` (stereo not drawn) [YJJ-B0887, permethrin], for which the cytotoxic effect result in data set [1] is reported as “higher cytotoxic effect”; in data set [4], “much weaker”; in data set [6], “stronger cytotoxic effect”. In data set [2], the mode of inhibition result is reported as “non-competitive inhibitor”. Also, in data set [2] (permethrin 0, 25, 50, 100 μM), the “Km of furin on addition of inhibitor” value is “does not change”. The “maximum reaction rate of furin on addition of inhibitor” value in data set [2] (permethrin 0, 25, 50, 100 μM) is “decreases”. In addition, the “inhibitory activity against trypsin” value in data set [3] was “to neither enzyme, permethrin has inhibitory activity”. The inhibition (as a rule, how much of the control response was suppressed) at 50 µM in data set [5] (50 μM compound, read-out: Inhibition Rate (50 μM)) is 55.9%. Moreover, 38.7 µM corresponded to half-maximal inhibition in data set [5] (furin, 40 μM Boc-R-V-R-R-AMC, pH 6.0, 37 °C) (IC50).
